Legend:
Mysidopsis bahia = assay: 48 hour acute static renewal toxicity bioassay, Mysidopsis bahia (E.P.A./600/4-85/013); format: in vivo; conditions: EPA Probit Analysis
Description: (§1) A nutrient mixture and coating were prepared as described in example 1. The toxicity of the product as expressed by reduced survival of organisms exposed to various dilutions of the product was determined through a 48 hour acute static renewal bioassay using Mysidopsis bahia and Cyprinodon variegatus. E.P.A./600/4-85/013 test protocol was followed. All organisms were maintained at room temperature with a light/dark cycle of 16/8. Dilution water was made from Tropic Marine Synthetic Sea Salt and was aerated for 24 hours before use in the test. The test was performed in 600 ml polypropylene diSPo beakers rinsed in the dilution water. Ten organisms of Mysidopsis bahia were placed in 200 ml of dilution water making a 5 cm depth. Ten organisms of Cyprinodon variegatus were placed in 500 ml of dilution water making a 9.5 cm depth.
(§2) Dissolved oxygen, pH, conductivity and salinity, alkalinity and hardness were measured before water renewal. CdCl supplied by the E.P.A. was used as the reference toxicant for both of the Mysidopsis and Cyprinodon organisms. Both the Mysidopsis and the Cyprinodons used in this test were obtained from Aquatox, Inc., and were approximately 27 days old at the time of testing. Both batches of organisms were acclimated to the proper salinity, by adding 300 ml of synthetic, fresh water, every hour until test initiation. […]

Cyprinodon variegatus = assay: 48 hour acute static renewal toxicity bioassay, Cyprinodon variegatus (E.P.A./600/4-85/013); format: in vivo; conditions: EPA Probit Analysis
Description: as §1, §2

[Cl][Cd][Cl] [CdCl]
EC50 (reduced survival), reference toxicant (Mysidopsis bahia): 0.1185 µg/mL
EC50 (reduced survival), reference toxicant (Cyprinodon variegatus): 7.8237 µg/mL

From patent publication US5725885A, “Composition for enhanced bioremediation of oil” (BioNutraTech, priority 1995, dated 1998)
